SMILES strings stand for the structures.

This assay relates to Plasmodium falciparum. The assay can be described thus: GSK_TCMDC: Inhibition of Plasmodium falciparum 3D7 in whole erythrocytes, using parasite LDH activity as an index of growth. Format: functional, organism-based. Particulars: Plasmodium falciparum, 3D7.
With `O=C(/C=C/c1ccc([N+](=O)[O-])cc1)N1CCC(CCN2CCC(c3c[nH]c4ccccc34)CC2)CC1`, the XC50 came to 743 nM.

With `O=[N+]([O-])c1cccc(/C=N/Nc2ccnc3ccc(C(F)(F)F)cc23)c1`, the XC50 was found to be 1090 nM.

For the compound `CCN(CC)CCN(Cc1ccc(-c2ccc(C(F)(F)F)cc2)cc1)C(=O)Cn1c(CCc2cccc(F)c2F)cc(=O)c2c1CCCC2`, the XC50 was 866 nM.

On to `CN(C)Cc1c(O)ccc2[nH]c(-c3cccc(F)c3)nc12`, for which the XC50 is 1000 nM.

In the case of `CC1(C)CCC(C)(C)c2c1ccc(C1CCN(CCCCNC(=O)c3ccc(-c4ccc(Cl)cc4)cc3)CC1)c2O`, the XC50 was found to be 477 nM.

`Cc1cc(CN2C(=O)C(c3ccccc3)(c3ccccc3)N=C2N)c(C(F)(F)F)o1` gave an XC50 of 956 nM.

Compound `Oc1cccc(-c2nc(-c3cccc(I)c3)c(-c3ccc(-c4nc(-c5cccc(O)c5)[nH]c4-c4cccc(I)c4)cc3)[nH]2)c1` displayed an XC50 of 925 nM.

As for `CC1(C)NC(N)=NC(=N)N1OCCCOc1ccc(N)cc1`, the XC50 was found to be 7.04 nM.

With `Cc1ccoc1C(=O)Nc1cccc(-c2cccc(-c3nc4cccc(C)c4[nH]3)c2)c1`, the XC50 came to 675 nM.

`O=C(Cc1ccccc1)NC(c1ccco1)c1cc(Cl)c2cccnc2c1O` (configuration not stated): the XC50 came to 691 nM.

Regarding `COc1ccc2nccc(NCC3(O)CCC(NCc4ccc5c(n4)NC(=O)CS5)CC3)c2n1` (configuration not stated), the XC50 amounted to 689 nM.

On to `NC1=NC(CCc2ccccc2)N(c2ccc(Cl)cc2)C(N)=N1` (configuration not stated), for which the XC50 is 38 nM.

The compound `CCCOc1cc(NC(=O)Nc2ccnc3ccccc23)cc(OCCC)c1` registered an XC50 of 732 nM.

Consider `CN1CCC[C@H]1COc1ccc(CN2CC[C@H](NC(=O)c3ccc(Cl)c(Cl)c3)C2)cc1Cl`, for which the XC50 amounted to 1150 nM.

In turn, `Cc1cccc2nc(-c3cccc(-c4ccc(NC(=O)Nc5ccc(Cl)c(Cl)c5)cc4)c3)[nH]c12` registered an XC50 of 566 nM.

Compound `Cc1cccc2nc(-c3cccc(-c4ccc(NC(=O)C(C)CN(C)C)cc4)c3)[nH]c12` (configuration not stated) registered an XC50 of 222 nM.

`CN1CCC(N(C)c2nccc(N3CCN(Cc4cncn4Cc4ccccc4)CC3)n2)CC1` registered an XC50 of 704 nM.

`CCOc1cc(NCCSCc2nc[nH]c2C)nc2ccccc12` displayed an XC50 of 792 nM.

`CCC(C)(C)C1CCc2nc(N)nc(N)c2C1` (configuration not stated): the XC50 is 6.38 nM.

For `Cc1cc(CNCCCCCCCNCc2ccc(Cl)cc2)ccc1O`, the XC50 was determined as 975 nM.

The compound `c1ccc2c(NCCOCCNc3c4ccccc4nc4ccccc34)c3ccccc3nc2c1` came in with an XC50 of 878 nM.

The compound `CC(=O)N(C)c1cccc(C(=O)Nc2ccc(-c3cccc(-c4nc5cc(C(F)(F)F)ccc5[nH]4)c3)cc2)c1` registered an XC50 of 724 nM.

`CC(C)C1CCc2nc(N)nc(N)c2C1` (configuration not stated) had an XC50 of 139 nM.

Turning to `CCCCCCN1CCCN(Cc2ccc(C(=O)Nc3ccc(C(C)(C)C)cc3)cc2)CC1`, the XC50 amounted to 744 nM.

`CCN(CCCN1CCCCC1)c1cc(C)nc(Nc2ccc(F)c(C(F)(F)F)c2)n1` returned an XC50 of 147 nM.

In the case of `CN(c1ccnc(Nc2ccc(CS(C)(=O)=O)cc2)n1)C1CCN(Cc2ccccc2)CC1`, the XC50 was found to be 1400 nM.

Regarding `COC(=O)c1ccc(CC(C)NCC(O)c2ccc3ccc4ccccc4c3c2)cc1` (configuration not stated), the XC50 amounted to 223 nM.

`CCCCCCOc1ccc(N2C(N)=NC(N)=NC2(C)C)cc1` gave an XC50 of 344 nM.

Turning to `CC(C)c1sc(N2CCN(C)CC2)nc1C(=O)NCCc1ccc(Cl)c(Cl)c1`, the XC50 stood at 1050 nM.

As for `O=C(Cc1ccccc1)NC(Nc1ccc([N+](=O)[O-])cc1)C(Cl)(Cl)Cl` (configuration not stated), the XC50 is 973 nM.

On to `COc1ccccc1N1CCN(CCCCNC(=O)c2ccc(NC(=O)c3cc(Cl)cc(Cl)c3)cc2)CC1`, for which the XC50 was determined as 458 nM.

On to `O=C(/C=C/c1ccc(Cl)c(Cl)c1)NCCCCCN1CCC(NC(=O)c2ccc(F)c(F)c2)CC1`, for which the XC50 is 788 nM.

Compound `COc1nc(NCC(C)C)nc(Oc2ccc(=O)n(Cc3ccccc3)n2)n1` had an XC50 of 631 nM.

Consider `CCOC(=O)c1nc(-c2ccccc2)[nH]c1-n1nc(C)cc1C`, for which the XC50 stood at 686 nM.

In turn, `Cc1cc(N[C@@H](CC(C)C)C(=O)NCCc2ccccc2)nc(NCC2CCCCC2)n1` displayed an XC50 of 904 nM.

In turn, `N#Cc1ccc(-c2ccc(C(=O)Nc3ccc4c(c3)CCN(C3CCC3)CC4)nc2)cn1` yielded an XC50 of 1160 nM.

Turning to `C=CCc1cc(OC)ccc1OCCCOc1c(C)nc(N)nc1N`, the XC50 was 3.2 nM.

For the compound `CN(C)c1ccc(-c2ccc(C(=O)NC3CCN(Cc4ccc(C(C)(C)C)cc4)CC3)s2)cc1`, the XC50 amounted to 970 nM.

`Cc1[nH]c2ccc(NS(C)(=O)=O)cc2c1C1CCN(CCC2CCN(C(=O)/C=C/c3ccc(Cl)c(Cl)c3)CC2)CC1` yielded an XC50 of 844 nM.

With `CCCCNc1cc(NCCCC)c2c(n1)[nH]c1ccccc12`, the XC50 was 570 nM.

`C=CCc1cc(Br)ccc1OCCCOc1c(N)nc(N)nc1N` displayed an XC50 of 192 nM.

`O=C(Nc1cccc(CN2CCCN(Cc3ncc[nH]3)CC2)c1)c1ccc2ccccc2c1`: the XC50 came to 632 nM.

`Cc1noc(C)c1-c1cccc(CNCc2ccc(-c3ccc(-c4nc5cc(C(F)(F)F)ccc5[nH]4)cc3)cc2)c1` had an XC50 of 172 nM.

The compound `CCN(CC)CCN1C(=O)C(O)(c2ccccc2Cl)c2c1cc(C(N)=O)cc2C(F)(F)F` (configuration not stated) had an XC50 of 703 nM.

`CCC(C)CC(=O)Nc1ccc(OC)c(S(=O)(=O)N[C@@H]2CCN(C#N)C2)c1` (some centres not stated): the XC50 is 1490 nM.

Take `Cc1ccc(-n2c(=O)c3c(n4c(SC(C)C)nnc24)-c2ccccc2CC32CCCCC2)cc1`: the XC50 came to 946 nM.

As to `Fc1ccc2[nH]c(-c3ccc(-c4ccc(CNCCN5CCNCC5)cc4)s3)nc2c1`, the XC50 was 779 nM.

The compound `Cc1ccccc1-c1nc2c(CN3CCC(O)(c4ccccc4)CC3)c(O)ccc2[nH]1` yielded an XC50 of 866 nM.

In turn, `O=C(Nc1cccc(CN2CCCN(Cc3ccc(O)cc3)CC2)c1)c1cc2ccccc2s1` showed an XC50 of 362 nM.

In turn, `Fc1ccccc1COc1ccc(Nc2ncnc3ccc(-c4nnc(C(F)(F)F)o4)cc23)cc1Cl` registered an XC50 of 731 nM.

Compound `CCCCCC(=O)N1CCOC(CCN2CCc3c(c4ccccc4n3C)C2)(c2ccc(Cl)c(Cl)c2)C1` (configuration not stated) showed an XC50 of 982 nM.

For the compound `COc1cc(CCNc2nc(NCc3ccccc3-c3ccccc3)nc(N3CCC(N)CC3)n2)ccc1O`, the XC50 amounted to 817 nM.

Regarding `O=C(c1cc(-c2ccco2)n[nH]1)N1CCN(S(=O)(=O)c2ccc(Cl)cc2)CC1`, the XC50 stood at 356 nM.

With `CCOC(C(=O)OCC1CCCN1C)(c1ccccc1)c1ccccc1` (configuration not stated), the XC50 turned out to be 863 nM.

`CC(C)(C)NCCN(Cc1ccc(-c2ccc(C(F)(F)F)cc2)cc1)C(=O)Cn1c(CCc2cccc(F)c2F)nc(=O)c2ccccc21` returned an XC50 of 764 nM.

Regarding `Cc1cccc2nc(-c3cccc(-c4ccc(NC(=O)COC(C)C)cc4)c3)[nH]c12`, the XC50 was 1190 nM.

The compound `CCc1c(C)nc(-n2nc(C)cc2NC(=O)C2c3ccccc3Oc3ccccc32)[nH]c1=O` displayed an XC50 of 952 nM.

Compound `Cc1[nH]c2ccccc2c1C1=CCN(CCN2CCOc3c(Br)cccc3C2=O)CC1` registered an XC50 of 797 nM.

As to `OC(CNc1ccnc(Nc2cccc(Cl)c2)n1)c1ccc(C(F)(F)F)cc1` (configuration not stated), the XC50 stood at 768 nM.

`CN(C)CCNCc1ncsc1-c1ccc2c(Nc3ccc(F)cc3Cl)ccnc2c1` yielded an XC50 of 1470 nM.

Turning to `O=C(c1ccc(-c2ccc(-c3nc4cc(C(F)(F)F)ccc4[nH]3)s2)cc1)N1CCN(CCc2ccccc2)CC1`, the XC50 was found to be 592 nM.

Turning to `CN1CCC(N2CCC(Oc3cccc(C(=O)NCCCC4CCCC4)c3)CC2)CC1`, the XC50 is 843 nM.

The record behind these values is ChEMBL document CHEMBL1157539, “Thousands of chemical starting points for antimalarial lead identification” (Nature, 2010).
